According to patent publication US11731943B2, “Therapeutic compounds, compositions and methods of use thereof” (priority 2016, dated 2023):
Like-named read-outs stand apart in the source and are kept apart here.

Experiments:
[1] = biological target: isolated recombinant JAK2 kinase domain (Homo sapiens (Human), UniProt O60674); test: JAK2 enzyme assay (Caliper LabChip, Ki); assay type: biochemical
Method in brief: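 Recombinant human JAK1 or JAK2 kinase domain phosphorylating a 5-carboxyfluorescein-labelled JAK3-derived peptide; 30 min at 22 °C, stopped with EDTA (50 mM final). Phosphorylated product measured as a fraction of total peptide by Caliper LabChip mobility shift.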

[2] = tested on: JAK1-dependent STAT6 phosphorylation downstream of IL-13 stimulation in BEAS-2B human bronchial epithelial cells; test: JAK1 pathway assay in BEAS-2B cells (IL-13-pSTAT6, MSD); assay type: cell-based; conditions: BEAS-2B cells, IL-13 stimulation, read-out: IL-13 p-STAT6 BEAS-2B IC50
[3] = biological target: isolated recombinant JAK1 kinase domain (Homo sapiens (Human), UniProt P23458); test: JAK1 enzyme assay (Caliper LabChip, Ki); assay type: biochemical; conditions: read-out: JAK1 Ki
Chain of isolated recombinant JAK1 kinase domain (P23458 875-1153): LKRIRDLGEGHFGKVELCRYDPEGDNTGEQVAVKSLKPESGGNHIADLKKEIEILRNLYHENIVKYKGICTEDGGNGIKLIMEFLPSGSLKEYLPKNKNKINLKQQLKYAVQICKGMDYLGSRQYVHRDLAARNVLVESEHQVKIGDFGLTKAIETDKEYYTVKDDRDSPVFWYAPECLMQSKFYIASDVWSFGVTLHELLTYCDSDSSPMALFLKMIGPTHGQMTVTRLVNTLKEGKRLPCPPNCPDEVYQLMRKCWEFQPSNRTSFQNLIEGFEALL
Method in brief: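 Recombinant human JAK1 kinase domain phosphorylating an N-terminally 5-carboxyfluorescein-labelled JAK3-derived peptide, 30 min at 22 °C, stopped with EDTA (50 mM final). Phosphorylated fraction of total peptide read by Caliper LabChip mobility shift; Ki from Morrison tight-binding fit corrected for ATP competition (Ki=Ki,app/(1+[ATP]/Km,app)).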

Chain of isolated recombinant JAK2 kinase domain (O60674 849-1124): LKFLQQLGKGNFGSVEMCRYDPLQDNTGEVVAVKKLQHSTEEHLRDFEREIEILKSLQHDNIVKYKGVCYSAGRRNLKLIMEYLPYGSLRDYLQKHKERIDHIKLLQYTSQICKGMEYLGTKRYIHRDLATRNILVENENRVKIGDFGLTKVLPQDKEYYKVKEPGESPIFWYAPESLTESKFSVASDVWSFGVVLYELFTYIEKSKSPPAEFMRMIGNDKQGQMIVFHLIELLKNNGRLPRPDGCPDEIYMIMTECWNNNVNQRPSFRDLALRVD

Compound	Ki [1] [nM]	IC50 ([2]; Homo sapiens, BEAS-2B) [nM]	Ki [3] [nM]	IC50 [2] [nM]
COC(=O)Nc1nn(C2(CC#N)CCN(Cc3ccc(-c4ccccc4)nc3F)CC2)cc1C(N)=O [Example 198, methyl N-[4-carbamoyl-1-[4-(cyanomethyl)-1-[(2-fluoro-6-phenyl-3-pyridyl)methyl]-4-piperidyl]pyrazol-3-yl]carbamate]	3.8	74	1.2	
N#CCC1(n2cc(C(N)=O)c(NC(=O)C3CC3)n2)CCN(Cc2ccc(-n3nccn3)cc2)CC1F (stereo not drawn) [Example 199, 1-[4-(cyanomethyl)-3-fluoro-1-[[4-(triazol-2-yl)phenyl]methyl]-4-piperidyl]-3-(cyclopropanecarbonylamino) pyrazole-4-carboxamide]	0.55	64	0.52	
COC(=O)Nc1nn(C2(CC#N)CCN(Cc3ccc(-n4nccn4)cc3)CC2F)cc1C(N)=O (stereo not drawn) [Example 200, methyl N-[4-carbamoyl-1-[4-(cyanomethyl)-3-fluoro-1-[[4-(triazol-2-yl)phenyl]methyl]-4-piperidyl]pyrazol-3-yl]carbamate]	0.96	39	0.51	
N#CCC1(n2cc(C(N)=O)c(NC(=O)C3CC3)n2)CCN(Cc2ccc(-c3ccccc3)nc2F)CC1F (stereo not drawn) [Example 201, 1-[4-(cyanomethyl)-3-fluoro-1-[(2-fluoro-6-phenyl-3-pyridyl)methyl]-4-piperidyl]-3-(cyclopropanecarbonylamino) pyrazole-4-carboxamide]	0.23	23	0.24	
N#CCC1(n2cc(C(N)=O)c(NC(=O)C3CC3)n2)CCN(Cc2cnc(-c3ccccc3)cc2F)CC1 [Example 202, 1-[4-(cyanomethyl)-1-[(4-fluoro-6-phenyl-3-pyridyl)methyl]-4-piperidyl]-3-(cyclopropanecarbonylamino) pyrazole-4-carboxamide]	0.74	74	0.55	
COC(=O)Nc1nn(C2(CC#N)CCN(Cc3ccc(-c4ccccc4)nc3F)CC2F)cc1C(N)=O (stereo not drawn) [Example 203, methyl N-[4-carbamoyl-1-[4-(cyanomethyl)-3-fluoro-1-[(2-fluoro-6-phenyl-3-pyridyl)methyl]-4-piperidyl]pyrazol-3-yl]carbamate]	0.22	15	0.25	
N#CCC1(n2cc(C(N)=O)c(NC(=O)C3CC3)n2)CCN(Cc2ccc(-c3ccccc3)cc2O)CC1 [Example 204, 1-[4-(cyanomethyl)-1-[(2-hydroxy-4-phenyl-phenyl)methyl]-4-piperidyl]-3-(cyclopropanecarbonylamino) pyrazole-4-carboxamide]	1.8	50	1	
N#CCC1(n2cc(C(N)=O)c(NC(=O)C3CC3)n2)CCC(N2CC(F)(c3ccccc3)C2)CC1 (stereo not drawn) [Example 205, 1-[1-(cyanomethyl)-4-(3-fluoro-3-phenyl-azetidin-1-yl)cyclohexyl]-3-(cyclopropanecarbonylamino) pyrazole-4-carboxamide]	5.9	82	0.89	
COC(=O)Nc1nn(C2(CC#N)CCN(Cc3cc(O)c(-c4ccccc4)cc3F)CC2)cc1C(N)=O [Example 206, methyl N-[4-carbamoyl-1-[4-(cyanomethyl)-1-[(2-fluoro-5-hydroxy-4-phenyl-phenyl)methyl]-4-piperidyl]pyrazol-3-yl]carbamate]	0.3	33	0.18	
N#CCC1(n2cc(C(N)=O)c(NC(=O)C3CC3)n2)CCN(Cc2cc(O)c(-c3ccccc3)cc2F)CC1F (stereo not drawn) [Example 207, 1-[4-(cyanomethyl)-3-fluoro-1-[(2-fluoro-5-hydroxy-4-phenyl-phenyl)methyl]-4-piperidyl]-3-(cyclopropanecarbonylamino) pyrazole-4-carboxamide]	0.13	29	0.11	
COC(=O)Nc1nn(C2(CC#N)CCN(Cc3cc(O)c(-c4ccccc4)cc3F)CC2F)cc1C(N)=O (stereo not drawn) [Example 208, methyl N-[4-carbamoyl-1-[4-(cyanomethyl)-3-fluoro-1-[(2-fluoro-5-hydroxy-4-phenyl-phenyl)methyl]-4-piperidyl]pyrazol-3-yl]carbamate]	0.21	28	0.17	
N#CCC1(n2cc(C(N)=O)c(NC(=O)OC3CC3)n2)CCN(Cc2ccc(-c3ccccc3)c(O)c2)CC1 [Example 209, cyclopropyl N-[4-carbamoyl-1-[4-(cyanomethyl)-1-[(3-hydroxy-4-phenyl-phenyl)methyl]-4-piperidyl]pyrazol-3-yl]carbamate]	3.8	98	0.49	
CCc1ccc(-c2ccc(CN3CCC(CC#N)(n4cc(C(N)=O)c(NC(=O)C5CC5)n4)C(F)C3)cc2O)cc1 (stereo not drawn) [Example 212, 1-[4-(cyanomethyl)-1-[[4-(4-ethylphenyl)-3-hydroxy-phenyl]methyl]-3-fluoro-4-piperidyl]-3-(cyclopropanecarbonylamino) pyrazole-4-carboxamide]	0.3	27	0.22	
Cc1c(CN2CCC(CC#N)(n3cc(C(N)=O)c(NC(=O)C4CC4)n3)C(F)C2)ccc(-c2ccccc2)c1O (stereo not drawn) [Example 213, 1-[4-(cyanomethyl)-3-fluoro-1-[(3-hydroxy-2-methyl-4-phenyl-phenyl)methyl]-4-piperidyl]-3-(cyclopropanecarbonylamino) pyrazole-4-carboxamide]	0.28	22	0.37	
N#CCC1(n2cc(C(N)=O)c(NC(=O)C3CC3)n2)CCN(Cc2ccc(-c3ccoc3)cc2)CC1F (stereo not drawn) [Example 214, 1-[4-(cyanomethyl)-3-fluoro-1-[[4-(3-furyl)phenyl]methyl]-4-piperidyl]-3-(cyclopropanecarbonylamino) pyrazole-4-carboxamide]	0.62	42	0.31	
N#CCC1(n2cc(C(N)=O)c(NC(=O)C3CC3)n2)CCN(Cc2ccc(-c3ccco3)cc2)CC1F (stereo not drawn) [Example 215, 1-[4-(cyanomethyl)-3-fluoro-1-[[4-(2-furyl)phenyl]methyl]-4-piperidyl]-3-(cyclopropanecarbonylamino) pyrazole-4-carboxamide]	0.25	12	0.24	
CCn1ccc(-c2ccc(CN3CCC(CC#N)(n4cc(C(N)=O)c(NC(=O)OC)n4)C(F)C3)cc2)n1 (stereo not drawn) [Example 216, methyl N-[4-carbamoyl-1-[4-(cyanomethyl)-1-[[4-(1-ethylpyrazol-3-yl)phenyl]methyl]-3-fluoro-4-piperidyl]pyrazol-3-yl]carbamate]	0.7	40	0.74	
CCn1ccc(-c2ccc(CN3CCC(CC#N)(n4cc(C(N)=O)c(NC(=O)C5CC5)n4)C(F)C3)cc2)n1 (stereo not drawn) [Example 217, 1-[4-(cyanomethyl)-1-[[4-(1-ethylpyrazol-3-yl)phenyl]methyl]-3-fluoro-4-piperidyl]-3-(cyclopropanecarbonylamino) pyrazole-4-carboxamide]	0.49	56	0.66	
N#CCC1(n2cc(C(N)=O)c(NC(=O)C3CC3C#N)n2)CCN(Cc2ccc(-c3ccccc3)cc2F)CC1F (stereo not drawn) [Example 218, 3-[(2-cyanocyclopropanecarbonyl)amino]-1-[4-(cyanomethyl)-3-fluoro-1-[(2-fluoro-4-phenyl-phenyl)methyl]-4-piperidyl]pyrazole-4-carboxamide]	0.59		0.35	28
